Measurements published in patent publication US20220409526A1 (Retina Foundation Of The Southwest, priority 2019, published 2022).
“Also recorded” adds a separate entry of the source.

Key:
ARPE-19 cells [1] = experiment: ZO-1 staining of cellular junctions; format: cell-based, human
Method: ARPE-19 cells were grown on an 8-well slide until confluent. The cells were exposed to 1 mM NAC and NACBE for 24 hours, followed by treatment with 500 μM of HQ for 2 hours. The cells were washed with 3 cycles of PBS, and then fixed with 4% Paraformaldehyde at 4° C. for 30 mins. After fixation the cells were blocked in PBST (0.2% Triton X-100)+1% BSA for 60 mins. Primary antibody (rabbit anti-Zo-1, Invitrogen) was diluted 1/100 in PBST+1% BSA and added overnight at […]. Cells were washed ×3 with PBS and secondary antibody (Donkey anti-Rabbit AF-555, Abcam) was added for 4 hours at RT. Cells were washed ×3 with PBS and mounted with Prolong Diamond Mountant with DAPI (Invitrogen).

ARPE-19 cells [2] = experiment: HPLC analysis of cellular uptake and conversion to NAC; format: in vitro ADME, human; conditions: 1 mM for 1 hour in HBSS
Method: ARPE-19 cells were seeded onto a 60 cm^2 dish and was allowed to grow to confluency. The cells were treated with 1 mM NAC and NACBE for 1 hour in HBSS. The drug solution was aspirated and washed twice with HBSS. The cells were scraped with the aid of methanol (˜1 mL) and collected into 2 mL centrifuge tubes. The cell suspension in methanol was sonicated (for cell lysis) in a water bath for 30 minutes and was centrifuged at 14,000 RPM for 15 minutes. The supernatant was transferred to a HPLC vial and methanol was evaporated under a stream of nitrogen.
The sample was resuspended in 50 μL of methanol before injecting into the HPLC system. Samples and standard (20 μL) were injected with an autosampler. Separation was conducted by 0.8 mL/min gradient elution with a water/0.10% formic acid and acetonitrile mobile phase on a 250×4.6-mm ([…]) C18 column (Restek, Pinnacle II) maintained at 25° C. The samples were monitored at 205 nm with a UV detector and analyzed with Agilent Chemstation software.

ARPE-19 cells [3] = experiment: GSH assay (Promega GSH/GSSG-Glo); format: cell-based, human; conditions: 1 mM for 24 hours
Method: The production of cellular GSH levels upon exposure to drugs were measured using the GSH assay kit. NACA and GSH-EE were used as controls in this assay. ARPE-19 cells were grown in white 96 well plates. The cells were exposed to 1 mM solutions of NAC, NACME, NACEE, NACPE, NACBE, NACA and glutathione ethyl ester (GSH-EE) for 24 hours. The solutions were removed and washed with PBS once. Afterwards, GSH assay was carried out according to manufacturer recommended protocol (Promega GSH/GSSG-Glo™) and luminescence readings were obtained with a luminometer, which a higher luminescence intensity indicates a higher GSH concentration.

[4] = test system: mitochondria isolated from ARPE-19 cells; experiment: Mitochondrial GSH assay; format: cell-based, human; conditions: 1 mM for 24 hours; compared to NAC and ARPE-19 cells
Method: A GSH assay was carried out for isolated mitochondria to study the mechanism of action of the NAC alkyl-ester analogues in protecting mitochondria. ARPE-19 cells were grown in 6 well plates until 100% confluent in MEM-NIC media. The cells were exposed to 3 mL of 1 mM solutions of NAC and NACBE for 24 hours. The solutions were removed and washed with 3 mL of HBSS before adding 1 mL of 0.25% Trypsin-EDTA and incubating for 10 minutes. 2 mL of DMEM:F-12 supplemented with 10% FBS was added to each well, harvested and centrifuged at 300 rcf for 5 minutes. The supernatant was removed and cell pellet was resuspended in 2 mL of isolation buffer (0.25 M sucrose and 10 mM HEPES).
Cells were disrupted using a probe sonicator (Misonix 5-3000) for 10 seconds in ice. Subsequently, intact cells and debris were removed by centrifuging at 1000 g for 10 mins. Supernatant was collected, and centrifuged at 20,000 g for 25 minutes. Pellet containing mitochondria were saved and washed using 0.5 mL of isolation buffer. After centrifuging at 20,000 g for 25 minutes the mitochondrial pellet was resuspended in 50 μL of HBSS. 25 μL was used to determine total GSH and GSSG and 25 μL was used to determine GSSG levels. GSH assay was then carried out according to manufacturer recommended protocol (Promega GSH/GSSG-Glo™) and luminescence readings were obtained.

[5] = test system: mitochondrial DNA of ARPE-19 cells; experiment: DNA fragmentation assay (long-extension PCR of mitochondrial DNA); format: cell-based, human; conditions: pretreatment for 24 hours (1 mM), then 500 uM HQ for 24 hours
Method: Mitochondrial DNA damage has been linked to pathogenic diseases, including AMD. To determine if pretreatment of RPE cells with NAC alkyl-ester analogues could protect mitochondrial DNA against oxidative damage, a long-extension PCR based assay was used to measure amplification of a large stretch of mitochondrial DNA. The mitochondrial DNA damage assay was performed according to protocols known to those in the art (see Santos, J. H.; Mandavilli, B. S.; Van Houten, B., Measuring Oxidative mtDNA Damage and Repair Using Quantitative PCR. In Mitochondrial DNA: Methods and Protocols, Copeland, W. C., Ed. Humana Press: Totowa, N.J., 2002; pp 159-176). Briefly, ARPE-19 cells were grown to confluency in 6-well plates. The cells were treated with NAC alkyl-ester analogues for 24 hours, washed and then treated with 500 uM HQ for an additional 24 hours. DNA was isolated from the treated cells with a QIAamp DNA mini kit (Qiagen). The DNA samples were diluted to 3 ng/μl for use in PCR reactions. PCR products were quantified using the Quant-iT Picogreen dsDNA Assay kit (Invitrogen). The relative amplification of the large band was normalized to untreated cells. The amplification of the small mitochondrial band was used to normalize the data obtained from the large band to account for mitochondrial DNA copy number.

ARPE-19 cells [6] = experiment: JC-1 staining (confocal); conditions: 1 mM pretreatment for 24 hours, then 50 μM HQ for 4 hours
Excerpt: The cells were imaged on the confocal (Zeiss LSM 800) by excitation with the 488 nm laser and emission imaged at 530 nm (green channel) and 590 nm (red channel).

CCCCOC(=O)[C@H](CS)NC(C)=O [NACBE, N-acetylcysteine butyl ester]
ZO-1 staining of cell-cell junctions (ARPE-19 cells [1]; 1 mM for 24 hours, without HQ): proper cell-cell junctions
ZO-1 staining of cellular junctions after exposure to HQ (ARPE-19 cells [1]; 1 mM pretreatment for 24 hours, then 500 μM HQ for 2 hours): intact
compound and metabolite detected within the cells by HPLC (ARPE-19 cells [2]): both NACBE (prodrug) and NAC (metabolite) within the cells; also recorded: taken up by the cells more effectively than NAC
cellular GSH level (luminescence) compared to untreated cells (ARPE-19 cells [3]): produced the highest amounts of GSH
mitochondrial GSH level (luminescence intensity) [4]: increase in the luminescence intensity
protection of mitochondrial DNA amplification against HQ [5]: keep the PCR amplification of the mitochondrial DNA intact
mitochondrial membrane potential after HQ (JC-1 staining) (ARPE-19 cells [6]): preserved the mitochondrial membrane potential
